Results from US11957680B2, “Pyruvate kinase activators for use in treating blood disorders” (Agios Pharmaceuticals, Inc., priority 2017, dated 2024).

Legend:
PKR R510Q = PKR R510Q (Homo sapiens, UniProt P30613, R510Q); experiment: PKR mutant assay (R510Q), AC50, LDH/NADH-coupled, absorbance at 340 nm; format: biochemical; conditions: for AC50: Table 2, enzyme assay, read-out: PK R510Q AC50; for EC50: read-out: PK R510Q
In short: (§1)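 Human PKR, wild type or K410E/R510Q mutant (40-400 ng/well), preincubated 60 min at room temperature with compound (11-point 3-fold series from 100 μM, 1% DMSO) in Tris pH 7.5/KCl/MgCl2 buffer with PEP 0.1-0.5 mM, 180 μM NADH, LDH. ADP (0.2-1.65 mM) started the reaction; LDH-coupled NADH consumption followed at 340 nm.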

wild type PKR [1] = target: T1, wild type PKR (Homo sapiens, UniProt P30613); experiment: PKR (wild type) enzyme AC50 assay, LDH/NADH-coupled, absorbance at 340 nm; format: biochemical; conditions: for AC50: Table 2, enzyme assay, read-out: PKR WT AC50; for EC50: read-out: PKR WT
T1 sequence (P30613 whole entry): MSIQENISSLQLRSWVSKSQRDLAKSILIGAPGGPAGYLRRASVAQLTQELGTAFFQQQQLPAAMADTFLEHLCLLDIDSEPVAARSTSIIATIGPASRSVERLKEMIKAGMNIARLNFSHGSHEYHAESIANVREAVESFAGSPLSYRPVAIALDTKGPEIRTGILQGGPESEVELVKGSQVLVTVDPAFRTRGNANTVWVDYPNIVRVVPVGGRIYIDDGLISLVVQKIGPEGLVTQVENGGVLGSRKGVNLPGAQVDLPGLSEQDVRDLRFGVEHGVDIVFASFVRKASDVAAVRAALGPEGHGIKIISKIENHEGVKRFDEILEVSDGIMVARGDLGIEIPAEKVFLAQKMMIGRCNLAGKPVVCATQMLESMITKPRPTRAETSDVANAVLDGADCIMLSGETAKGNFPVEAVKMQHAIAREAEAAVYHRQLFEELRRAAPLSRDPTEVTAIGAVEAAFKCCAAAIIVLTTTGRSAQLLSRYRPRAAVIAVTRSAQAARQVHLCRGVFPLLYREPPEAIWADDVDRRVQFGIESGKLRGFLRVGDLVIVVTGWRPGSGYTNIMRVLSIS
In short: as §1

wild type PKR [2] = target: T1, wild type PKR; experiment: Cell based ATP assay in purified red blood cells (Cell-Titer-Glo); parameters: endogenous in cells; host or cells: purified red blood cells from healthy volunteers; conditions: overnight at 37° C., ATP levels
In short: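 RBCs from healthy human donors' K2EDTA blood were leukocyte-depleted by filtration and resuspended in AGAM (PBS, 1% glucose, adenine, mannitol). Cells at 1×10^7 cells/mL were incubated overnight at 37 °C with serially diluted compound at 0.1% DMSO, and ATP was read by Cell-Titer-Glo luminescence.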

PKR K410E = PKR K410E (Homo sapiens, UniProt P30613, K410E); experiment: PKR mutant assay (K410E), AC50, LDH/NADH-coupled, absorbance at 340 nm; format: biochemical; conditions: for AC50: Table 2, enzyme assay; for EC50: Table 4, AC50, enzyme assay
Chain of PKR K410E (P30613 whole entry K410E): as the sequence (P30613 whole entry) above, with K410E counted along it
In short: as §1

Chain of PKR R510Q (P30613 whole entry R510Q): as the sequence (P30613 whole entry) above, with R510Q counted along it

Row | SMILES | AC50 (PKR R510Q) | AC50 (wild type PKR [1]) | AC50 (wild type PKR [2]; Table 2, RBCs) | AC50 (PKR K410E) | EC50 (PKR R510Q; Table 4, AC50, enzyme assay) | EC50 (wild type PKR [1]; Table 4, AC50, enzyme assay) | EC50 (wild type PKR [2]; Table 4, AC50, RBCs) | EC50 (PKR K410E) | also measured
1 | Cn1c2nc(Cc3cccnc3)sc2c2cnn(Cc3cccc4[nH]ncc34)c(=O)c21 [Compound 164] | < 300 nM | < 300 nM | ≤ 1000 nM | < 300 nM |  |  |  |  | 
2 | CCOC(=O)c1scnc1Cc1nc2c(s1)c1cnn(Cc3cccc4[nH]ncc34)c(=O)c1n2C [Compound 165] | 301 to 800 nM | 301 to 800 nM | ≤ 1000 nM | > 800 nM |  |  |  |  | 
3 | Cn1c2nc(Cc3ccon3)sc2c2cnn(Cc3cccc4[nH]ncc34)c(=O)c21 [Compound 166] | 301 to 800 nM | 301 to 800 nM | > 1000 nM | > 800 nM |  |  |  |  | 
4 | Cn1c2nc(Cc3ncsc3CO)sc2c2cnn(Cc3cccc4[nH]ncc34)c(=O)c21 [Compound 167] | < 300 nM | < 300 nM | ≤ 1000 nM | < 300 nM |  |  |  |  | 
5 | Cn1c2nc(Cc3csc(CO)n3)sc2c2cnn(Cc3cccc4[nH]ncc34)c(=O)c21 [Compound 168] | < 300 nM | < 300 nM | ≤ 1000 nM | < 300 nM |  |  |  |  | 
6 | Cn1c2nc(Cc3cccc(=O)[nH]3)sc2c2cnn(Cc3cccc4[nH]ncc34)c(=O)c21 [Compound 170] | < 300 nM | < 300 nM | ≤ 1000 nM | < 300 nM |  |  |  |  | 
7 | Cn1c2nc(Cc3n[nH]cc3C(F)(F)F)sc2c2cnn(Cc3cccc4[nH]ncc34)c(=O)c21 [Compound 172] | > 800 nM | > 800 nM | > 1000 nM | > 800 nM |  |  |  |  | 
8 | COc1ccc(Cc2nc3c(s2)c2cnn(Cc4cccc5[nH]ncc45)c(=O)c2n3C)cn1 [Compound 173] | < 300 nM | < 300 nM | ≤ 1000 nM | < 300 nM |  |  |  |  | 
9 | Cn1c2nc(Cc3ccc(=O)[nH]c3)sc2c2cnn(Cc3cccc4[nH]ncc34)c(=O)c21 [Compound 174] | > 800 nM | > 800 nM |  | 301 to 800 nM |  |  |  |  | Cell based ATP assay AC50 (wild type PKR [2]; Table 2, RBCs): No Fit
10 | Cn1c2nc(Cc3cccc4cn[nH]c34)sc2c2cnn(Cc3cccc4[nH]ncc34)c(=O)c21 [Compound 181] | < 300 nM | < 300 nM | ≤ 1000 nM | < 300 nM |  |  |  |  | 
11 | Cn1c2nc(Cc3cn[nH]c3)sc2c2cnn(Cc3cccc4[nH]ncc34)c(=O)c21 [Compound 184] | < 300 nM | < 300 nM | ≤ 1000 nM | < 300 nM |  |  |  |  | 
12 | Cn1c2nc(Cc3cnoc3)sc2c2cnn(Cc3cccc4[nH]ncc34)c(=O)c21 [Compound 185] | 301 to 800 nM | > 800 nM | > 1000 nM | 301 to 800 nM |  |  |  |  | 
13 | Cn1cc(Cc2nc3c(s2)c2cnn(Cc4cccc5[nH]ncc45)c(=O)c2n3C)cn1 [Compound 186] |  |  |  |  | 301 to 800 nM | > 800 nM | ≤ 1000 nM | > 800 nM | 
14 | Cn1c2nc(-n3cnc(CS(=O)(=O)c4ccccc4)c3)sc2c2cnn(Cc3cccc4[nH]ncc34)c(=O)c21 [Compound 187] |  |  |  |  |  |  |  | > 800 nM | PK R510Q (PKR R510Q; Table 4, AC50, enzyme assay): No Fit; PKR WT (wild type PKR [1]; Table 4, AC50, enzyme assay): No Fit; Cell based ATP assay (wild type PKR [2]; Table 4, AC50, RBCs): No Fit
15 | Cn1c2nc(Cc3ncsc3C(N)=O)sc2c2cnn(Cc3cccc4[nH]ncc34)c(=O)c21 [Compound 196] |  |  |  |  | < 300 nM | < 300 nM | ≤ 1000 nM | < 300 nM | 
16 | Cn1c2nc(Cc3cc[nH]n3)sc2c2cnn(Cc3nccc4[nH]ncc34)c(=O)c21 [Compound 199] |  |  |  |  | < 300 nM | < 300 nM | ≤ 1000 nM | < 300 nM | 
17 | Cn1c2nc(Cc3cc[nH]c(=O)c3)sc2c2cnn(Cc3cccc4[nH]ncc34)c(=O)c21 [Compound 200] |  |  |  |  | > 800 nM | < 300 nM | ≤ 1000 nM | < 300 nM | 
18 | Cn1ncc2c(Cn3ncc4c5sc(Cc6cc[nH]n6)nc5n(C)c4c3=O)cccc21 [Compound 201] |  |  |  |  | < 300 nM | < 300 nM | ≤ 1000 nM | < 300 nM | 
19 | Cn1c2nc(Cc3cc[nH]n3)sc2c2cnn(Cc3cccc4nn[nH]c34)c(=O)c21 [Compound 202] |  |  |  |  | < 300 nM | < 300 nM | ≤ 1000 nM | < 300 nM | 
20 | Cn1c2nc(Cc3c[nH]cn3)sc2c2cnn(Cc3cccc4[nH]ncc34)c(=O)c21 [Compound 205] |  |  |  |  | < 300 nM | < 300 nM | ≤ 1000 nM | < 300 nM | 
21 | Cn1c2nc(Cc3csc(C(N)=O)n3)sc2c2cnn(Cc3cccc4[nH]ncc34)c(=O)c21 [Compound 206] |  |  |  |  | > 800 nM | > 800 nM | > 1000 nM | > 800 nM | 

Second part, led by results:

Row | AC50 (PKR R510Q) | AC50 (wild type PKR [1]) | AC50 (wild type PKR [2]; Table 2, RBCs) | AC50 (PKR K410E) | EC50 (PKR R510Q; Table 4, AC50, enzyme assay) | EC50 (wild type PKR [1]; Table 4, AC50, enzyme assay) | EC50 (wild type PKR [2]; Table 4, AC50, RBCs) | EC50 (PKR K410E) | SMILES | also measured
22 | < 300 nM | < 300 nM | ≤ 1000 nM | < 300 nM |  |  |  |  | Cn1c2nc(C(C)(O)c3cc[nH]n3)sc2c2cnn(Cc3cccc4[nH]ncc34)c(=O)c21 (centres unmarked) [Compound 162] | 
23 | < 300 nM | < 300 nM | ≤ 1000 nM | < 300 nM |  |  |  |  | COc1cccc(Cc2nc3c(s2)c2cnn(Cc4cccc5[nH]ncc45)c(=O)c2n3C)n1 [Compound 169] | 
24 | > 800 nM | > 800 nM | ≤ 1000 nM | 301 to 800 nM |  |  |  |  | COC(=O)C(c1cc[nH]n1)c1nc2c(s1)c1cnn(Cc3cccc4[nH]ncc34)c(=O)c1n2C (centres unmarked) [Compound 171] | 
25 | < 300 nM | < 300 nM | ≤ 1000 nM | < 300 nM |  |  |  |  | Cn1c2nc(Cc3cc[nH]n3)sc2c2cnn(Cc3ccc(C#N)cc3)c(=O)c21 [Compound 175] | 
26 | > 800 nM | > 800 nM | > 1000 nM | > 800 nM |  |  |  |  | Cn1c2nc(Cc3cc[nH]n3)sc2c2cnn(Cc3ccc(C(N)=O)cc3)c(=O)c21 [Compound 176] | 
27 | < 300 nM | < 300 nM | ≤ 1000 nM | < 300 nM |  |  |  |  | Cn1c2nc(C(N)c3cc[nH]n3)sc2c2cnn(Cc3cccc4[nH]ncc34)c(=O)c21 (centres unmarked) [Compound 177] | 
28 | > 800 nM | > 800 nM | > 1000 nM | > 800 nM |  |  |  |  | CC(=O)NC(c1cc[nH]n1)c1nc2c(s1)c1cnn(Cc3cccc4[nH]ncc34)c(=O)c1n2C (centres unmarked) [Compound 178] | 
29 | > 800 nM | > 800 nM | > 1000 nM | > 800 nM |  |  |  |  | Cn1c2nc(NC(=O)Cc3cc[nH]n3)sc2c2cnn(Cc3cccc4[nH]ncc34)c(=O)c21 [Compound 180] | 
30 | < 300 nM | < 300 nM | ≤ 1000 nM | < 300 nM |  |  |  |  | Cn1c2nc(Cc3cc[nH]n3)sc2c2cnn(Cc3cccc(C#N)c3)c(=O)c21 [Compound 182] | 
31 | < 300 nM | < 300 nM | ≤ 1000 nM | < 300 nM |  |  |  |  | Cn1c2nc(Cc3cc[nH]n3)sc2c2cnn(Cc3cccc(C(N)=O)c3)c(=O)c21 [Compound 183] | 
32 |  |  |  |  | < 300 nM | < 300 nM | ≤ 1000 nM | < 300 nM | CC(=O)c1cccc(Cn2ncc3c4sc(Cc5cc[nH]n5)nc4n(C)c3c2=O)c1 [Compound 190] | 
33 |  |  |  |  | > 800 nM | > 800 nM | > 1000 nM | > 800 nM | CC(=O)c1cccc(CC(c2cc[nH]n2)c2nc3c(s2)c2cnn(Cc4cccc(C(C)=O)c4)c(=O)c2n3C)c1 (centres unmarked) [Compound 192] | 
34 |  |  |  |  | < 300 nM | < 300 nM | ≤ 1000 nM | < 300 nM | Cn1c2nc(Cc3cc[nH]n3)sc2c2cnn(Cc3ccccc3)c(=O)c21 [Compound 193] | 
35 |  |  |  |  | < 300 nM | < 300 nM | ≤ 1000 nM | < 300 nM | CC(c1cc[nH]n1)c1nc2c(s1)c1cnn(Cc3cccc4[nH]ncc34)c(=O)c1n2C (centres unmarked) [Compound 195] | 
